Entries after “also recorded” stand apart in the source; their conditions may differ. Peptide text beside a SMILES is read from it. * marks the point of attachment. Biotin = O=C1N[C@H]2[C@H](CS[C@H]2CCCCC(=O)*)N1; Ahx = NCCCCCC(=O)O
How the values were obtained:
[1] = system: Human lung microvascular endothelial cells (HLMEC); assay: TER of HLMEC after LPS exposure; assay type: cell-based; settings: n=3, p<0.0001 vs LPS
Method: Human lung microvascular endothelial cells (HLMEC) were exposed to 10 μg LPS. Cells were treated with aCT1 prior to exposure or 24 hrs post LPS insult, scrambled control, or sham control. […] (n=3, compared to LPS ***:p<0.0001).
(§1) To determine if aCT1 treatment preserves junctional integrity in human lung cells, human bronchial epithelial cells (NHBEs) were grown as confluent monolayers on Transwell inserts and trans-epithelial resistance (TER) recorded. TER readings measure electrical resistance across a cell monolayer and provide a quantitative metric of intercellular junction integrity.

human subjects [2] = settings: in vivo
Source text: (§2) Clinical trials have been undertaken to assess safety of topical delivery of aCT1.

[3] = Source text: as §2
rats = assay: Intravenous (bolus) toxicity of aCT1 in rats; assay type: in vivo, rat; settings: intravenous bolus
Method: (§3) Clinical signs were only observed at aCT1 administration levels that are well above the therapeutic range of efficacy, following intravenous administration of aCT1 at ≥10 mg/kg (Maximum Tolerated Dose). The results of these studies uniformly support aCT1 tolerability when delivered locally and systemically via various routes.

[4] = Intravenous (bolus) toxicity of aCT1 in rats; assay type: in vivo, rat; settings: rat, in vivo
Method: as §3

[5] = system: C57BL/6 mice intranasally challenged with a lethal dose of lipopolysaccharide (LPS); assay: Lethal LPS-induced lung injury (ARDS) mouse model, survival; assay type: in vivo; settings: p<0.01 vs LPS, n=10/group
Method: C57BL/6 mice were pretreated with either 1000 uM aCT1, 1000 uM scrambled aCT1, or vehicle control prior to inoculation with a lethal dose (35 mg/kg/mouse) of LPS. A further group was treated with aCT1 6 hrs post inoculation of LPS. n=10/group (p<0.01 LPS vs LPS pre-aCT1, p<0.01 LPS vs LPS post aCT1).
Studies were undertaken to assess whether delivery of aCT1 to the respiratory tract in animal models of ARDS would reduce epithelial and endothelial breakdown, thereby preserving the air-liquid barrier while preventing fluid accumulation and reducing immune cell infiltration, resulting in the amelioration of ARDS pathology and preserving lung function to improve survival. Using a well characterized mouse model of ARDS, we investigated whether aCT1 applied directly to the lungs could inhibit severe endotoxin induced lung injury. C57BL/6 mice were intranasally challenged with a lethal dose of lipopolysaccharide (LPS) and were treated with aCT1 immediately prior to LPS administration, or 6 h post LPS exposure (FIG. 2).

[6] = system: normal human bronchial epithelial cells (NHBE); assay: Trans-epithelial resistance (TER) of NHBE monolayers after H2O2 exposure; assay type: cell-based; settings: aCT1 pre-treatment, exposure to 100 mM H2O2; n=3
Method: (n=3, compared to H2O2 *:p<0.05, **:p<0.01, ***:p<0.0001)
as §1

human subjects [7] = settings: local (topical) delivery, clinical trials; cited from earlier work

What does the source list for `CC[C@H](C)[C@H](NC(=O)[C@H](CCC(=O)O)NC(=O)[C@H](CC(C)C)NC(=O)[C@H](CC(=O)O)NC(=O)[C@H](CC(=O)O)NC(=O)[C@@H]1CCCN1C(=O)[C@H](CCCNC(=N)N)NC(=O)[C@@H]1CCCN1C(=O)[C@H](CCCNC(=N)N)NC(=O)[C@H](CCCCN)NC(=O)[C@H](CCCCN)NC(=O)[C@H](Cc1c[nH]c2ccccc12)NC(=O)[C@@H]1CCCN1C(=O)[C@H](CCCCN)NC(=O)[C@H](CCCNC(=N)N)NC(=O)[C@H](CCCNC(=N)N)NC(=O)[C@H](CC(N)=O)NC(=O)[C@@H]1CCCN1C(=O)[C@H](Cc1ccccc1)NC(=O)[C@H](Cc1c[nH]c2ccccc12)NC(=O)[C@@H](NC(=O)[C@H](CCCCN)NC(=O)[C@@H]1CCCN1C(=O)[C@H](CCC(N)=O)NC(=O)[C@H](CCCNC(=N)N)NC(=O)CCCCCNC(=O)CCCC[C@@H]1SC[C@@H]2NC(=O)N[C@@H]21)[C@@H](C)CC)C(=O)O` [aCT1] ({Biotin-Ahx}-RQPKIWFPNRRKPWKKRPRPDDLEI-OH; N-terminus and C-terminus assumed)?
TER (endothelial barrier integrity) ([1]; aCT1 pre-treatment prior to 10 μg LPS): significantly improved endothelial TER readings; also recorded: preserved barrier integrity; TER (endothelial barrier integrity) ([1]; aCT1 treatment 24 hrs post LPS insult (10 μg LPS)): significantly improved endothelial TER readings; also recorded: preserved barrier integrity; Drug related adverse events (human subjects [2]): no drug related adverse events; Systemic exposure (pharmacokinetic studies in clinical trials) (human subjects [2]): no systemic exposure; Immunogenicity (anti-aCT1 antibodies) ([3]; any preclinical study or clinical trial): not immunogenic; half-life ([3]; human): 15 to 20 min; Tolerability (rats): well tolerated; MTD ([4]; intravenous administration, read-out: Dose at which clinical signs were observed (Maximum Tolerated Dose)): ≥ 10 mg/kg; NOAEL ([4]; intravenous bolus, read-out: no-observable-adverse-effect level (NOAEL)): 5 mg/kg; Survival / LPS-induced mortality ([5]; aCT1 treatment 6 hrs post LPS inoculation (35 mg/kg/mouse)): significant protection against LPS-induced mortality; also recorded: significantly improved survival; Survival / LPS-induced mortality ([5]; intranasal 1000 uM aCT1 pre-treatment prior to lethal LPS (35 mg/kg/mouse)): significant protection against LPS-induced mortality; also recorded: significantly improved survival; TER (epithelial barrier integrity) [6]: significantly increased TER readings; also recorded: stabilized intercellular junctions; Efficacy and safety in acute and chronic skin injuries (human subjects [7]): demonstrated the efficacy and safety
